Measurements taken from patent US20260262643A1, “HERBICIDAL BENZOXAZINES” (FMC CORPORATION, priority 2022, published 2026).

Tests used:
[1] = test system: soybean; assay: Test C postemergence; type: in vivo, Glycine max; conditions: 10 days, 0 to 100 scale (0 no effect, 100 complete control)
Outline: (§1)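 Test material, in non-phytotoxic solvent with surfactant, was sprayed on the soil directly after seeding (preemergence) or on young plants of 2–10 cm with one to two leaves (postemergence). Greenhouse, 10 days; 0–100 visual control scale.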

[2] = test system: rice; assay: Test D flooded paddy test; type: in vivo, Oryza sativa; conditions: 250 g ai/ha, applied to paddy water, visual rating after 13 to 14 days, scale 0 to 100 (0 no effect, 100 complete control)
Outline: (§2)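 Visual ratings from 0, meaning no effect, to 100, meaning complete control, were assigned against untreated controls 13 to 14 days after compounds were added to the floodwater of pots kept 3 cm deep, with plants at the 2-leaf stage.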

[3] = test system: sedge, umbrella; assay: Test D flooded paddy test; type: in vivo, Cyperus difformis; conditions: 250 g ai/ha, applied to paddy water, visual rating after 13 to 14 days, scale 0 to 100 (0 no effect, 100 complete control)
Outline: as §2

[4] = test system: pigweed, palmer; assay: Test C preemergence; type: in vivo, Amaranthus palmeri
Outline: as §1

[5] = test system: barnyardgrass; assay: Test D flooded paddy test; type: in vivo, Echinochloa crus-galli; conditions: 250 g ai/ha, applied to paddy water, visual rating after 13 to 14 days, scale 0 to 100 (0 no effect, 100 complete control)
Outline: as §2

[6] = test system: horseweed; assay: Test C postemergence; type: in vivo, Erigeron canadensis; conditions: 10 days, 0 to 100 scale (0 no effect, 100 complete control)
Outline: as §1

[7] = test system: kochia; assay: Test C postemergence; type: in vivo, Bassia scoparia; conditions: 10 days, 0 to 100 scale (0 no effect, 100 complete control)
Outline: as §1

[8] = test system: oat, wild; assay: Test C preemergence; type: in vivo, Avena fatua
Outline: as §1

[9] = test system: ryegrass, Italian; assay: Test C postemergence; type: in vivo, Lolium multiflorum; conditions: 10 days, 0 to 100 scale (0 no effect, 100 complete control)
Outline: as §1

[10] = test system: soybean; assay: Test C preemergence; type: in vivo, Glycine max
Outline: as §1

[11] = test system: ducksalad; assay: Test D flooded paddy test; type: in vivo, Heteranthera limosa; conditions: 250 g ai/ha, applied to paddy water, visual rating after 13 to 14 days, scale 0 to 100 (0 no effect, 100 complete control)
Outline: as §2

[12] = test system: green foxtail; assay: Test C preemergence; type: in vivo, Setaria viridis
Outline: as §1

[13] = test system: pigweed, palmer; assay: Test C postemergence; type: in vivo, Amaranthus palmeri; conditions: 10 days, 0 to 100 scale (0 no effect, 100 complete control)
Outline: as §1

[14] = test system: barnyardgrass; assay: Test C preemergence; type: in vivo, Echinochloa crusgalli
Outline: as §1

[15] = test system: wheat; assay: Test C preemergence; type: in vivo, Triticum aestivum
Outline: as §1

[16] = test system: ragweed; assay: Test C preemergence; type: in vivo, Ambrosia artemisiifolia
Outline: as §1

[17] = test system: oat, wild; assay: Test C postemergence; type: in vivo, Avena fatua; conditions: 10 days, 0 to 100 scale (0 no effect, 100 complete control)
Outline: as §1

[18] = test system: corn; assay: Test C preemergence; type: in vivo, Zea mays
Outline: as §1

[19] = test system: corn; assay: Test C postemergence; type: in vivo, Zea mays; conditions: 10 days, 0 to 100 scale (0 no effect, 100 complete control)
Outline: as §1

[20] = test system: green foxtail; assay: Test C postemergence; type: in vivo, Setaria viridis; conditions: 10 days, 0 to 100 scale (0 no effect, 100 complete control)
Outline: as §1

[21] = test system: blackgrass; assay: Test C postemergence; type: in vivo, Alopecurus myosuroides; conditions: 10 days, 0 to 100 scale (0 no effect, 100 complete control)
Outline: as §1

[22] = test system: ryegrass, Italian; assay: Test C preemergence; type: in vivo, Lolium multiflorum
Outline: as §1

[23] = test system: wheat; assay: Test C postemergence; type: in vivo, Triticum aestivum; conditions: 10 days, 0 to 100 scale (0 no effect, 100 complete control)
Outline: as §1

[24] = test system: galium; assay: Test C postemergence; type: in vivo, Galium aparine; conditions: 10 days, 0 to 100 scale (0 no effect, 100 complete control)
Outline: as §1

[25] = test system: kochia; assay: Test C preemergence; type: in vivo, Bassia scoparia
Outline: as §1

[26] = test system: ragweed; assay: Test C postemergence; type: in vivo, Ambrosia artemisiifolia; conditions: 10 days, 0 to 100 scale (0 no effect, 100 complete control)
Outline: as §1

[27] = test system: barnyardgrass; assay: Test C postemergence; type: in vivo, Echinochloa crusgalli; conditions: 10 days, 0 to 100 scale (0 no effect, 100 complete control)
Outline: as §1

[28] = test system: blackgrass; assay: Test C preemergence; type: in vivo, Alopecurus myosuroides
Outline: as §1

[29] = 500 g ai/ha, preemergence, 0 to 100 scale (0 no effect, 100 complete control)
[30] = Preemergence, 125 g ai/ha, 0 to 100 scale, 0 no effect, 100 complete control

For `CCOCC1CN(C(=O)c2cc(-n3cnc(CC)n3)ccc2OC)c2cccc(Cl)c2O1` (stereo not shown) [Compound 378], the “Plant response rating, Soybean” value ([1]; 500 g ai/ha, postemergence) was 100, the “Plant response rating, Soybean” value ([1]; Postemergence, 125 g ai/ha) was 100 and the “Plant response rating, Rice (Flood)” value [2] was 0. For the same molecule, the “Plant response rating, Sedge, Umbrella (Flood)” value [3] was 0, the “Pigweed, Palmer plant response rating” value [4, 29] was 100 and the “Plant response rating, Pigweed, Palmer” value [4, 30] was 100. The “Plant response rating, Barnyardgrass (Flood)” value [5] was 0, the “Plant response rating, Horseweed” value ([6]; 500 g ai/ha, postemergence) was 70 and the “Plant response rating, Horseweed” value ([6]; Postemergence, 125 g ai/ha) was 10. For the same molecule, the “Plant response rating, Kochia” value ([7]; 500 g ai/ha, postemergence) was 100, the “Plant response rating, Kochia” value ([7]; Postemergence, 125 g ai/ha) was 90 and the “Oat, Wild plant response rating” value [8, 29] was 60. For the same molecule, the “Plant response rating, Oat, Wild” value [8, 30] was 20, the “Plant response rating, Ryegrass, Italian” value ([9]; 500 g ai/ha, postemergence) was 60 and the “Plant response rating, Ryegrass, Italian” value ([9]; Postemergence, 125 g ai/ha) was 20. For the same molecule, the “Soybean plant response rating” value [10, 29] was 90, the “Plant response rating, Soybean” value [10, 30] was 60 and the “Plant response rating, Ducksalad (Flood)” value [11] was 0. For the same molecule, the “Foxtail, Green plant response rating” value [12, 29] was 100, the “Plant response rating, Foxtail, Green” value [12, 30] was 90 and the “Plant response rating, Pigweed, Palmer” value ([13]; 500 g ai/ha, postemergence) was 100. For the same molecule, the “Plant response rating, Pigweed, Palmer” value ([13]; Postemergence, 125 g ai/ha) was 90, the “Barnyardgrass plant response rating” value [14, 29] was 100 and the “Plant response rating, Barnyardgrass” value [14, 30] was 80. For the same molecule, the “Wheat plant response rating” value [15, 29] was 30, the “Plant response rating, Wheat” value [15, 30] was 10 and the “Ragweed plant response rating” value [16, 29] was 80. The “Plant response rating, Ragweed” value [16, 30] was 60, the “Plant response rating, Oat, Wild” value ([17]; 500 g ai/ha, postemergence) was 30 and the “Plant response rating, Oat, Wild” value ([17]; Postemergence, 125 g ai/ha) was 0. For the same molecule, the “Corn plant response rating” value [18, 29] was 50, the “Plant response rating, Corn” value [18, 30] was 0 and the “Plant response rating, Corn” value ([19]; 500 g ai/ha, postemergence) was 80. For the same molecule, the “Plant response rating, Corn” value ([19]; Postemergence, 125 g ai/ha) was 20, the “Plant response rating, Foxtail, Green” value ([20]; 500 g ai/ha, postemergence) was 90 and the “Plant response rating, Foxtail, Green” value ([20]; Postemergence, 125 g ai/ha) was 70. For the same molecule, the “Plant response rating, Blackgrass” value ([21]; 500 g ai/ha, postemergence) was 50, the “Plant response rating, Blackgrass” value ([21]; Postemergence, 125 g ai/ha) was 30 and the “Ryegrass, Italian plant response rating” value [22, 29] was 90. The “Plant response rating, Ryegrass, Italian” value [22, 30] was 60, the “Plant response rating, Wheat” value ([23]; 500 g ai/ha, postemergence) was 40 and the “Plant response rating, Wheat” value ([23]; Postemergence, 125 g ai/ha) was 30. The “Plant response rating, Galium” value ([24]; 500 g ai/ha, postemergence) was 100, the “Plant response rating, Galium” value ([24]; Postemergence, 125 g ai/ha) was 90 and the “Kochia plant response rating” value [25, 29] was 100. For the same molecule, the “Plant response rating, Kochia” value [25, 30] was 100, the “Plant response rating, Ragweed” value ([26]; 500 g ai/ha, postemergence) was 90 and the “Plant response rating, Ragweed” value ([26]; Postemergence, 125 g ai/ha) was 70. For the same molecule, the “Plant response rating, Barnyardgrass” value ([27]; 500 g ai/ha, postemergence) was 80, the “Plant response rating, Barnyardgrass” value ([27]; Postemergence, 125 g ai/ha) was 40 and the “Blackgrass plant response rating” value [28, 29] was 50. The “Plant response rating, Blackgrass” value [28, 30] was 10.
